Test results: US20100104550A1 (priority 2006, published 2010)

Assays:
CHOP = type: cell-based, murine
BiP = type: cell-based, African green monkey
bovine BiP = bovine BiP (Bos taurus, UniProt Q0VCX2); type: biochemical
GRP78/BiP = GRP78/BiP (Homo sapiens, UniProt P11021); type: cell-based
GRP78/BiP, sequence (P11021 19-654): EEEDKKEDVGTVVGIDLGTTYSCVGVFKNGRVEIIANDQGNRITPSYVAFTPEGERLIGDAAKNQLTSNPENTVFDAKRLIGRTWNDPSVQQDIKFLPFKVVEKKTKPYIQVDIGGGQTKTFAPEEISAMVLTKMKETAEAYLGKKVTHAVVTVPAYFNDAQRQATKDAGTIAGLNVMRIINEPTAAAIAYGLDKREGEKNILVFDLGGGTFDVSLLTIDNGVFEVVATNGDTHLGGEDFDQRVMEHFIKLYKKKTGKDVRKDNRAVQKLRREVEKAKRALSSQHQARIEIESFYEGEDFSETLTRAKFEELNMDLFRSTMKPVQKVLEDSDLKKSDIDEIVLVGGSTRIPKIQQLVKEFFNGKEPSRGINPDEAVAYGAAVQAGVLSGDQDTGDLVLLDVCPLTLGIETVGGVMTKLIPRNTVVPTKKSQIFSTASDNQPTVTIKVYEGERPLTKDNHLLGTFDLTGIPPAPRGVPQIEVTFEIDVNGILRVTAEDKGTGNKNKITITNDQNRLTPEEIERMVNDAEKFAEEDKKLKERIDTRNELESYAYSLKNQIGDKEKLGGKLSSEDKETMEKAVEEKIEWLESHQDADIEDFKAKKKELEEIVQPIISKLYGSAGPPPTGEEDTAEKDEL

Q: tunicamycin was tested. Which “CHOP induction in N2A cells” value (CHOP) did it give?
A: Its value is “evident”.

Q: `C[C@H]1CCC/C=C/[C@@H]2C[C@H](O)C[C@H]2[C@H](O)/C=C/C(=O)O1` [brefeldin A] was tested. Which “effect on SubAB cleavage of 72-kDa BiP” value (BiP) did it give?
A: The value was “completely blocked”.

Q: With “SubB: B subunit of subtilase cytotoxin, 13 kDa, binds target cells and transports SubA intracellularly” as the molecule, how does the “cleavage of purified bovine BiP” value (bovine BiP) read?
A: Its value is “not cleaved”.

Q: Which “CHOP induction in N2A cells” value (CHOP) does the source give for `C/C=C(/C)C(=O)O[C@H]1C(C)=C2[C@H]([C@@H]1OC(=O)CCCCCCC)[C@@](C)(OC(C)=O)C[C@H](OC(=O)CCC)[C@@]1(O)[C@H]2OC(=O)[C@@]1(C)O` [thapsigargin, reference compound] here?
A: Its value is “evident”.

Q: And the “expression of BiP” value (GRP78/BiP)?
A: The value was “enhanced expression of BiP”.
